According to patent US11919860B1 (priority 2023, dated 2024):

System: Mycobacterium tuberculosis H37Rv (ATCC: 25177)
Test: Anti-tubercular activity, colorimetric Resazurin Microplate Assay (REMA)
Type: cell-based
Settings: 192 h, read-out: Anti-tubercular activity against Mycobacterium tuberculosis H37Rv (MIC)

Row | Compound | MIC
1 | CC(C)OC(=O)c1cc[n+](CC(=O)c2ccccc2)cc1.[Br-] [Compound 4a, 4-(Isopropoxycarbonyl)-1-(2-oxo-2-phenylethyl)pyridin-1-ium Bromide] | 0.5 µg/mL
2 | CC(C)OC(=O)c1cc[n+](CC(=O)c2ccc(F)cc2)cc1.[Br-] [Compound 4b, 1-(2-(4-Fluorophenyl)-2-oxoethyl)-4-(isopropoxycarbonyl)pyridin-1-ium bromide] | 1 µg/mL
